Results from US5998376A, “Substance P treatment for immunostimulation” (priority 1998, dated 1999).

Key:
[1] = tested on: melanoma B16 cancer cells; experiment: B16 melanoma tail vein injection, tumor colonies in both lungs; assay type: in vivo, mice; conditions: for mean number of tumor colonies observed in both lungs: 1×10^4 B16 cells/mouse, 4 weeks post-injection
Source text: The mice were infected with syngeneic […] melanoma B16 cancer cells by tail vein injection. The dose was 1×10^4 B16 tumor cells/mouse. […] The second group of mice was given their substance P aerosol therapy starting one week after the injection of the B16 cells. The aerosol therapy lasted for one week. Both groups of mice and their corresponding controls (injection with B16 cells and no substance P therapy) were killed at 4 weeks post-injection with B16 cells. The data is presented as the mean number of tumor colonies observed in both lungs.

[2] = tested on: immune system organs (spleen, lymph nodes and thymus); experiment: Organ Weight and Total Cell Recovery, JP-8 exposed mice; assay type: in vivo, C57B16 mice; set-up: Spleen Weight / Thymus Weight: unit not given here
Method: At 24 hours after the last exposure, the animals were sacrificed and the effects of exposure on the immune system examined. Immune organs (spleen, thymus, blood, lymph nodes and bone marrow) were recovered and analyzed for effects on organ weight, total cell numbers, immune cell populations (by differentials), and lymphocyte subpopulations (by flow cytometry). Assays were also performed to examine the effects of exposure on immune function. […] Similar effects on immune cell subpopulations were also observed in lymph nodes. In the thymus it appeared that the immature CD4^+ CD8^+ cells were differentially lost due to exposure. […] However, these effects are prevented or ameliorated by treatment of the animals with Substance P.
Organ Weight and Total Cell Recovery: For each of the immune system organs (spleen, lymph nodes and thymus) the wet weight is determined after removal using a microbalance. After processing of the organs into single cell suspensions the cell numbers and viabilities are determined using trypan blue staining. Histochemical differentials are performed at this time. Cell numbers and viabilities are again determined after centrifugation of the cell suspensions through density gradients to obtain mononuclear cells.

[3] = tested on: melanoma B16 cancer cells; experiment: B16 melanoma massive challenge, survival; assay type: in vivo, mice; conditions: tumor-challenged mammals, aerosol therapy
Source text: The mice were infected with 1×10^5 […] melanoma B16 cancer cells by tail vein injection.

[4] = JP-8 dose 0 + SP or antagonist aerosol
[5] = JP-8 dose 1000 + SP or antagonist aerosol
[6] = JP-8 dose 1000 + nSP (1 nanomolar substance P)
[7] = dose printed 100 + nSP (1 nanomolar substance P)

## Substance P [SP]
[1]; 1 μM SP aerosol 15 min/day 7 days starting immediately after injection
  mean number of tumor colonies observed in both lungs: 39
[1]; 1 μM SP aerosol for one week starting one week after injection
  mean number of tumor colonies observed in both lungs: 1
[1]; tumor-challenged mammals, aerosol therapy
  rate of tumor colonization: reduce the rate of tumor colonization
[2]; [4]
  BM Cell Number: 9
  Spleen Cell Number: 30
  Spleen Weight: 0.10
  Thymus Cell Number: 18
  Thymus Weight: 0.04
[2]; JP-8 dose 250 + SP aerosol
  BM Cell Number: 23
  Spleen Cell Number: 40
  Spleen Weight: 0.16
  Thymus Cell Number: 20
  Thymus Weight: 0.06
[2]; [5]
  BM Cell Number: 21
  LN Cell Number: 5.0
  Spleen Cell Number: 72
  Spleen Weight: 0.14
  Thymus Cell Number: 78
  Thymus Weight: 0.11
[2]; [6]
  BM Cell Number: 31
  Thymus Cell Number: 78
  Thymus Weight: 0.04
[2]; JP-8 dose 2500 + SP aerosol
  BM Cell Number: 19
  LN Cell Number: 5.0
  Spleen Cell Number: 87
  Spleen Weight: 0.10
  Thymus Cell Number: 96
  Thymus Weight: 0.08
[2]; [7]
  Spleen Cell Number: 58
  Spleen Weight: 0.11
[3]
  survival time: enhance survival time
